Test results taken from US20050112573A1, “Method of detecting toxic substance” (priority 2001, published 2005).

Tested on: yeast genes (level of expressed mRNA)
Test: DNA chip analysis of expressed mRNA of yeast genes after 2 h culture with a toxic chemical substance
Assay type: cell-based, Saccharomyces cerevisiae S288C
Procedure: Yeast (Saccharomyces cerevtisiae S288C (α SUC2mal mel gap2 CUP1)) were cultured at 25° C. on YPD medium (yeast extract 1%, polypepton 2%, glucose 2%). One of toxic chemical substances was added to the cell at logarithmic growth phase, and the cell was further cultured for two hours. Cell was cultured without any chemical substance in the same condition, and was used as control. Concentrations of the chemical substances were defined to inhibit the growth of the yeast but not lead to death.
After the completion of cultivation, the culture was centrifuged to collect the cells. To the cells, sodium acetate buffer (50 mM sodium acetate, 10 mM EDTA, 1% SDS) was added, and the mixture was shaken at 65° C. for five minutes, followed by returning to room temperature, and obtaining the supernatant, which procedure was repeated two times. To the supernatant, ½ amount of a solution of phenol/chloroform was added, and the mixture was centrifuged to give a supernatant, which was added with an equal amount of chloroform, and the mixture was centrifuged to give a supernatant. To the supernatant, an equal amount of isopropanol containing 0.3 M sodium acetate was added, and the mixture was allowed to stand at room temperature for 30 minutes, after which the mixture was centrifuged to give a sediment of the whole RNAs. Seventy % ethanol was added to the sediment, and the mixture was again centrifuged to give a sediment, which was then dried and dissolved in water. mRNA was isolated from the whole RNAs as followings. In view of the fact that a poly A chain is attached to the 3′ terminus of mRNA, a polynucleotide having a poly T structure which was immobilized on the surface of latex beads was used to trap the mRNA, and then the mRNA was washed and eluted with spine column (Oligotex-dT30<Super>mRNA Purification Kit, Takara). Reverse transcription of the mRNA was conducted with a reverse transcriptase (Super Script II Reverse Transcriptase; catalogue No. 18064-014, GibcoBRL) using fluorescence-labeled nucleotides to give cDNAs that were introduced with Cy3-dUTP or Cy5-dUTP during the reverse transcription.
The labeled cDNAs were dissolved in TE buffer (10 mM Tris-HCl/1 mM EDTA, pH8.0), and the solution was dropped on the DNA chip containing the whole genes of yeast (DNA Chip Research Inc. Japan) so that the cDNAs were hybridized on the DNA chip at 65° C. for over 12 hours. The fluoresces intensity of the DNA chip was read with a scanner, and the ratio relative to the fluorescence intensity resulting from the absence of chemical substance was estimated as the following, which is shown in Tables 1 to 9: [formula]
In the Tables, “Intensity” indicated in the rightmost column is a value of the level of expressed mRNA of each gene in control cells as divided by the average level of the expressions of the whole genes.

C[S+](C)[O-] [(15), dimethylsulfoxide]
2.8: level of expressed mRNA in the presence of chemical substance/in its absence (gene YBR023C) | level of expressed mRNA in the presence of chemical substance/in its absence (gene YGL126W)
1.8: level of expressed mRNA in the presence of chemical substance/in its absence (gene YDR019C)
2.3: The level of expressed mRNA in the presence of chemical substance/absence: YAL014C (gene YAL014C) | The level of expressed mRNA in the presence of chemical substance/absence: YDL046W (gene YDL046W) | The level of expressed mRNA in the presence of chemical substance/absence: YFR026C (gene YFR026C) | The level of expressed mRNA in the presence of chemical substance/absence: YGR139W (gene YGR139W)
11.0: level of expressed mRNA in the presence of chemical substance/in its absence (gene YCR098C)
6.5: level of expressed mRNA in the presence of chemical substance/in its absence (gene YCL009C)
0.9: level of expressed mRNA in the presence of chemical substance/in its absence (gene YAL054C) | The level of expressed mRNA in the presence of chemical substance/absence: YBR129C (gene YBR129C) | level of expressed mRNA in the presence of chemical substance/in its absence (gene YDL022W) | The level of expressed mRNA in the presence of chemical substance/absence: YDR071C (gene YDR071C) | The level of expressed mRNA in the presence of chemical substance/absence: YDR140W (gene YDR140W) | The level of expressed mRNA in the presence of chemical substance/absence: YFR056C (gene YFR056C) | level of expressed mRNA in the presence of chemical substance/in its absence (gene YGL001C) | level of expressed mRNA in the presence of chemical substance/in its absence (gene YGL104C) | The level of expressed mRNA in the presence of chemical substance/absence: YGR198W (gene YGR198W) | The level of expressed mRNA in the presence of chemical substance/absence: YGR277C (gene YGR277C)
1.4: The level of expressed mRNA in the presence of chemical substance/absence: YAL049C (gene YAL049C) | The level of expressed mRNA in the presence of chemical substance/absence: YDR128W (gene YDR128W) | The level of expressed mRNA in the presence of chemical substance/absence: YDR366C (gene YDR366C) | level of expressed mRNA in the presence of chemical substance/in its absence (gene YEL020C) | level of expressed mRNA in the presence of chemical substance/in its absence (gene YGR060W)
1.9: The level of expressed mRNA in the presence of chemical substance/absence: YAR064W (gene YAR064W) | The level of expressed mRNA in the presence of chemical substance/absence: YBR162C (gene YBR162C) | The level of expressed mRNA in the presence of chemical substance/absence: YDR421W (gene YDR421W)
1.5: level of expressed mRNA in the presence of chemical substance/in its absence (gene YGL039W) | The level of expressed mRNA in the presence of chemical substance/absence: YGL045W (gene YGL045W)
0.5: The level of expressed mRNA in the presence of chemical substance/absence: YAR047C (gene YAR047C) | level of expressed mRNA in the presence of chemical substance/in its absence (gene YBR050C) | The level of expressed mRNA in the presence of chemical substance/absence: YDR078C (gene YDR078C) | The level of expressed mRNA in the presence of chemical substance/absence: YER182W (gene YER182W) | level of expressed mRNA in the presence of chemical substance/in its absence (gene YGL134W) | The level of expressed mRNA in the presence of chemical substance/absence: YGR211W (gene YGR211W)
0.3: The level of expressed mRNA in the presence of chemical substance/absence: YDR281C (gene YDR281C)
21.4: level of expressed mRNA in the presence of chemical substance/in its absence (gene YCL064C)
6.9: The level of expressed mRNA in the presence of chemical substance/absence: YAL018C (gene YAL018C)
0.7: level of expressed mRNA in the presence of chemical substance/in its absence (gene YAL044C) | The level of expressed mRNA in the presence of chemical substance/absence: YBL044W (gene YBL044W) | level of expressed mRNA in the presence of chemical substance/in its absence (gene YBR035C) | level of expressed mRNA in the presence of chemical substance/in its absence (gene YBR111C) | The level of expressed mRNA in the presence of chemical substance/absence: YDR250C (gene YDR250C) | The level of expressed mRNA in the presence of chemical substance/absence: YDR278C (gene YDR278C) | The level of expressed mRNA in the presence of chemical substance/absence: YGL041C (gene YGL041C) | The level of expressed mRNA in the presence of chemical substance/absence: YGL057C (gene YGL057C) | The level of expressed mRNA in the presence of chemical substance/absence: YGL223C (gene YGL223C)
4.3: level of expressed mRNA in the presence of chemical substance/in its absence (gene YBR222C)
2.9: level of expressed mRNA in the presence of chemical substance/in its absence (gene YGR282C)
3.1: level of expressed mRNA in the presence of chemical substance/in its absence (gene YAL012W) | level of expressed mRNA in the presence of chemical substance/in its absence (gene YAL038W) | level of expressed mRNA in the presence of chemical substance/in its absence (gene YCR048W)
4.0: level of expressed mRNA in the presence of chemical substance/in its absence (gene YER026C) | level of expressed mRNA in the presence of chemical substance/in its absence (gene YGL022W)
0.8: The level of expressed mRNA in the presence of chemical substance/absence: YBR051W (gene YBR051W) | The level of expressed mRNA in the presence of chemical substance/absence: YCR007C (gene YCR007C) | The level of expressed mRNA in the presence of chemical substance/absence: YDR338C (gene YDR338C) | level of expressed mRNA in the presence of chemical substance/in its absence (gene YGL154C) | level of expressed mRNA in the presence of chemical substance/in its absence (gene YGL253W) | The level of expressed mRNA in the presence of chemical substance/absence: YGR243W (gene YGR243W)
1.3: The level of expressed mRNA in the presence of chemical substance/absence: YBR287W (gene YBR287W) | The level of expressed mRNA in the presence of chemical substance/absence: YDL233W (gene YDL233W) | The level of expressed mRNA in the presence of chemical substance/absence: YDR271C (gene YDR271C) | The level of expressed mRNA in the presence of chemical substance/absence: YDR316W (gene YDR316W) | The level of expressed mRNA in the presence of chemical substance/absence: YDR425W (gene YDR425W) | The level of expressed mRNA in the presence of chemical substance/absence: YDR485C (gene YDR485C) | The level of expressed mRNA in the presence of chemical substance/absence: YGR156W (gene YGR156W) | The level of expressed mRNA in the presence of chemical substance/absence: YGR210C (gene YGR210C)
3.5: level of expressed mRNA in the presence of chemical substance/in its absence (gene YBR029C)
3.2: level of expressed mRNA in the presence of chemical substance/in its absence (gene YDR009W) | level of expressed mRNA in the presence of chemical substance/in its absence (gene YGL209W)
1.6: The level of expressed mRNA in the presence of chemical substance/absence: YBR063C (gene YBR063C) | level of expressed mRNA in the presence of chemical substance/in its absence (gene YBR068C) | The level of expressed mRNA in the presence of chemical substance/absence: YDL089W (gene YDL089W)
1.0: The level of expressed mRNA in the presence of chemical substance/absence: YAL017W (gene YAL017W) | level of expressed mRNA in the presence of chemical substance/in its absence (gene YBL001C) | The level of expressed mRNA in the presence of chemical substance/absence: YBL100C (gene YBL100C) | The level of expressed mRNA in the presence of chemical substance/absence: YBR124W (gene YBR124W) | The level of expressed mRNA in the presence of chemical substance/absence: YBR255W (gene YBR255W) | The level of expressed mRNA in the presence of chemical substance/absence: YBR281C (gene YBR281C) | level of expressed mRNA in the presence of chemical substance/in its absence (gene YCR037C) | The level of expressed mRNA in the presence of chemical substance/absence: YDR221W (gene YDR221W) | level of expressed mRNA in the presence of chemical substance/in its absence (gene YDR487C) | The level of expressed mRNA in the presence of chemical substance/absence: YER092W (gene YER092W)
2.4: level of expressed mRNA in the presence of chemical substance/in its absence (gene YDR380W) | level of expressed mRNA in the presence of chemical substance/in its absence (gene YER069W)
8.2: level of expressed mRNA in the presence of chemical substance/in its absence (gene YDR502C)
1.7: The level of expressed mRNA in the presence of chemical substance/absence: YCL056C (gene YCL056C) | The level of expressed mRNA in the presence of chemical substance/absence: YDR109C (gene YDR109C) | The level of expressed mRNA in the presence of chemical substance/absence: YGL183C (gene YGL183C)
1.1: level of expressed mRNA in the presence of chemical substance/in its absence (gene YAR071W) | The level of expressed mRNA in the presence of chemical substance/absence: YBR012C (gene YBR012C) | The level of expressed mRNA in the presence of chemical substance/absence: YBR013C (gene YBR013C) | level of expressed mRNA in the presence of chemical substance/in its absence (gene YBR183W) | The level of expressed mRNA in the presence of chemical substance/absence: YDL173W (gene YDL173W) | The level of expressed mRNA in the presence of chemical substance/absence: YDR090C (gene YDR090C) | The level of expressed mRNA in the presence of chemical substance/absence: YFL042C (gene YFL042C) | The level of expressed mRNA in the presence of chemical substance/absence: YGR038W (gene YGR038W) | The level of expressed mRNA in the presence of chemical substance/absence: YGR237C (gene YGR237C) | The level of expressed mRNA in the presence of chemical substance/absence: YGR266W (gene YGR266W)
1.2: level of expressed mRNA in the presence of chemical substance/in its absence (gene YBR014C) | level of expressed mRNA in the presence of chemical substance/in its absence (gene YBR145W) | The level of expressed mRNA in the presence of chemical substance/absence: YDL193W (gene YDL193W) | level of expressed mRNA in the presence of chemical substance/in its absence (gene YDR410C) | The level of expressed mRNA in the presence of chemical substance/absence: YDR504C (gene YDR504C) | The level of expressed mRNA in the presence of chemical substance/absence: YGR250C (gene YGR250C)
0.6: level of expressed mRNA in the presence of chemical substance/in its absence (gene YBR299W) | The level of expressed mRNA in the presence of chemical substance/absence: YDR133C (gene YDR133C) | The level of expressed mRNA in the presence of chemical substance/absence: YEL044W (gene YEL044W)
4.4: The level of expressed mRNA in the presence of chemical substance/absence: YCL044C (gene YCL044C)
0.4: The level of expressed mRNA in the presence of chemical substance/absence: YBR066C (gene YBR066C) | level of expressed mRNA in the presence of chemical substance/in its absence (gene YEL011W) | level of expressed mRNA in the presence of chemical substance/in its absence (gene YFR015C) | The level of expressed mRNA in the presence of chemical substance/absence: YGL088W (gene YGL088W)
